PMC9738062, “Selectively Halogenated Flavonolignans—Preparation and Antibacterial Activity” (International Journal of Molecular Sciences, 2022)

Legend:
[1] = tested on: multidrug-resistant S. aureus; test: Sensitization of antibiotic-resistant bacteria (compound plus breakpoint antibiotic concentration); assay type: cell-based, Staphylococcus aureus; details: flavonoid 40 µM, 24 h; for Effect on viability in combination with chloramphenicol: chloramphenicol 8 mg/L
Description: (§1) Clinically relevant antibiotics were selected for sensitization testing according to the European Committee on Antimicrobial Susceptibility Testing (EUCAST). Neither colistin and imipenem at breakpoint concentrations (according to EUCAST, […] and […]) affected the growth of the multidrug-resistant clinical strain of P. aeruginosa. Similarly, neither chloramphenicol and gentamicin at breakpoint concentrations ([…], respectively) affected the multidrug-resistant clinical strain of S. aureus. Flavonoids and their derivatives (1–40 µM) were used in combination therapy, along with the breakpoint concentration of antibiotics. After co-incubation, the minimum inhibitory concentration of flavonoids inhibiting the visible growth of bacteria was determined (Table 2).
(§2) Clinical isolates of P. aeruginosa and S. aureus were obtained from the General University Hospital in Prague (Prague, Czech Republic). P. aeruginosa was resistant to ciprofloxacin, oxacillin, ticarcillin, colistin, gentamicin, and imipenem. S. aureus was resistant to ciprofloxacin, gentamicin, erythromycin, chloramphenicol, clindamycin, oxacillin, cefotaxime, and vancomycin. Bacteria were cultivated in Mueller–Hinton broth (MH broth, Merck). The susceptibility of the bacteria was evaluated by the minimum inhibitory concentrations (MIC). The MIC of derivatives in the presence of the antibiotic cut-off concentration was determined according to ISO 20776-1: 2020. The antibiotic cut-off concentration was chosen according to the European Committee on Antimicrobial Susceptibility Testing (EUCAST, Clinical breakpoints—bacteria (ver. 11.0), 1 January 2021). The 40 µM concentration of the derivatives was chosen as the highest concentration for the tests. Cell viability was determined by measuring absorbance (A590 nm) after 24 h incubation at 37 °C, 150 rpm.

DPPH radical scavenging = details: 1,1-diphenyl-2-picrylhydrazyl radical scavenging
Description: (§3) To further elucidate how halogenation affects other properties of the flavonoids studied, their 2,2′-azino-bis-(3-ethylbenzothiazoline-6-sulfonic acid) cation (ABTS) and 1,1-diphenyl-2-picrylhydrazyl (DPPH) radical scavenging, the Folin–Ciocalteu reagent (FCR) reducing, the ferric-reducing antioxidant power (FRAP), and the anti-lipoperoxidation activities were evaluated by in vitro methods (Supplementary Information Tables S1 and S2).
(§4) The antiradical activity was evaluated by the ability to scavenge ABTS and DPPH radicals. Reducing capacity was assessed by the ability to reduce the Folin–Ciocalteu reagent (FCR) and ferric ions (FRAP). The ability to inhibit lipid peroxidation of pooled male rat microsomal liver membranes induced by tert-butyl hydroperoxide was also evaluated and the results were expressed as IC50 values.

[2] = Ferric reducing antioxidant power (FRAP); details: Fe2+ equivalents
Description: as §3, §4

[3] = ABTS cation radical scavenging; details: vitamin C equivalent antioxidant capacity
Description: as §3, §4

[4] = tested on: Vibrio campbellii BAA 1118 (AI-1); test: microbe, parasite or virus in culture; assay type: cell-based; details: Vibrio campbellii, BAA1118, 16 h, read-out: EC50 (concentration that halved the communication)
Source text: (§5) Commercially available strains of Vibrio campbellii were used to evaluate the ability of flavonoids and their derivatives to inhibit bacterial quorum sensing. V. campbellii uses two types of autoinducing molecules for its communication—N-acyl-homoserine lactones (Autoinducer I, AI-1, strain BAA 1118) and furanosyl borate diester (Autoinducer II, AI-2, strain BAA 1119). AI-1-based communication is mainly used by Gram-negative bacteria, while AI-2-based communication is found in both Gram-negative and Gram-positive bacteria. The mutant strains of V. campbellii BA1118 and BA1119 respond only to AI-1 or AI-2, respectively, and the response to the respective AI concentration is measured as luminescence. The higher the AI concentration, the higher the luminescence signal. The ability to inhibit the communication was expressed as the selectivity index (SI), calculated as the ratio between the concentration that halved the viability (IC50) and the concentration that halved the communication (EC50) of the respective V. campbellii strains. […] The antimicrobial activity of quorum-sensing inhibitors is undesirable because it creates a selection pressure and can lead to the development of resistance.
(§6) The inhibition of bacterial extracellular communication was measured using Vibrio campbellii strains BAA-1118 and BAA-1119. The experiment was performed according to the methods of Szemerédi et al.. Briefly, 5 × 10^5 CFU/mL (colony-forming units per milliliter) were seeded in an Autoinducer Bioassay medium (NaCl 17.5 g/L, MgSO4 12.3 g/L, Casamino acids 2 g/L, 10 mL of 1 M potassium phosphate pH 7.0, 10 mL of 0.1 M L-arginine, and 10 mL of glycerol in 970 mL of deionized water) in a 96-well plate. Immediately, the tested compounds were added at the final concentration of 0.2–200 µM and luminescence was recorded for 16 h by a SpectraMax i3x microplate reader set at 30 °C, an integration time of 10,000 ms, and shaking for 60 s before measurement. […] The selectivity index was calculated as the […]. The EC50 and IC50 were calculated using GraphPad Prism software version 5.00 for Windows with a nonlinear regression curve fit.

[5] = tested on: Vibrio campbellii BAA 1119 (AI-2); test: microbe, parasite or virus in culture; assay type: cell-based; details: for EC50: Vibrio campbellii, BAA1119, 16 h, read-out: EC50 (concentration that halved the communication)
Source text: as §5, §6

[6] = tested on: pooled male rat microsomal liver membranes; test: Inhibition of lipid peroxidation induced by tert-butyl hydroperoxide; assay type: biochemical; details: male rat microsomes, read-out: ILP IC50
Description: as §4

[7] = tested on: Vibrio campbellii BAA 1118 (AI-1); test: Viability of the quorum-sensing reporter culture (resazurin assay), AI-1 strain; assay type: cell-based; details: BAA1118, V. campbellii BAA 1118, resazurin assay, read-out: IC50 (concentration that halved the viability)
Source text: as §5, §6

[8] = tested on: Vibrio campbellii BAA 1119 (AI-2); test: Viability of the quorum-sensing reporter culture (resazurin assay), AI-2 strain; assay type: cell-based; details: BAA1119, V. campbellii BAA 1119, resazurin assay, read-out: IC50 (concentration that halved the viability)
Source text: as §5, §6

[9] = tested on: doxorubicin-resistant human ovarian carcinoma (HOC/DOX); test: Cytotoxicity (resazurin assay, 72 h); assay type: cell-based; details: for IC50: Homo sapiens, 72 h, resazurin assay; for SI (selectivity index): ratio IC50 for HDF / IC50 for HOC/DOX
Description: (§7) The cytotoxicity of flavonoids and their halogenated derivatives was determined as their ability to decrease the viability of human dermal fibroblasts (HDF) and doxorubicin-resistant human ovarian carcinomas (HOC/DOX). Both cell lines were cultivated in Dulbecco’s Modified Eagle’s Medium supplemented with fetal bovine serum (FBS, 10% v/v) and 1 × antibiotic antimycotic solution and incubated at 37 °C in the atmosphere of 5% CO2. The experiment was performed according to a previously published method. Briefly, 1 × 10^5 cells/mL were seeded into a 96-well plate (100 µL/well). After 24 h, flavonoids and their derivatives were administered at the concentration range of 31.25–500 µM. After 72 h, the viability was determined by resazurin assay (0.03 mg/mL of resazurin in PBS), where the fluorescence was measured after 2 h of incubation by the SpectraMax i3x microplate reader at a wavelength of 560/590 nm (excitation/emission). The concentration inhibiting half of the population (IC50) was determined using nonlinear regression in GraphPad Prism software. The selectivity index was calculated as the ratio between the IC50 for HDF (control, non-cancerous cells) and the IC50 for HOC/DOX (cancer cells).

[10] = tested on: human dermal fibroblasts (HDF); test: Cytotoxicity (resazurin assay, 72 h); assay type: cell-based; details: Fibroblast
Description: as §7

[11] = tested on: multidrug-resistant P. aeruginosa; test: Sensitization of antibiotic-resistant bacteria (compound plus breakpoint antibiotic concentration); assay type: cell-based, Pseudomonas aeruginosa; details: flavonoid 40 µM, 24 h; for Effect on viability in combination with imipenem: imipenem 4 mg/L; on Effect on viability in combination with imipenem: key: -: no effect (100% viability) was observed up to the highest flavonolignan concentration tested (>40 µM); reversion of resistance: the compound reversed the resistant phenotype to a sensitive one
Description: as §1, §2

[12] = Folin-Ciocalteu reagent reduction; details: gallic acid equivalents
Description: as §3, §4

[13] = tested on: lipopolysaccharide-stimulated macrophages (RAW 264.7); test: Inhibition of nitric oxide production (Griess reagent); assay type: cell-based, murine; details: Mus musculus, RAW264.7; LPS 100 ng/mL, 24 h; highest tested concentration 100 µM; read-out: NO Production IC50
Description: The anti-inflammatory activity of the tested flavonolignans was determined as the ability to reduce nitric oxide production by murine macrophages (RAW 264.7) stimulated by bacterial lipopolysaccharides, as previously described. […] For the experiment, 1 × 10^6 cells/mL was seeded into the 96-well plate (100 µL/well). […] After 24 h, the medium was mixed with Griess reagent (0.04 g/mL), prepared freshly in deionized water at the ratio of 1:1. The absorbance was measured after 15 min at 540 nm by the SpectraMax i3x microplate reader. Cell viability was determined by resazurin assay.

[14] = tested on: S. aureus biofilm formation; design: method as in PMID 28365326; details: cited from earlier work
breast cancer cell lines = tested on: breast cancer cell lines; design: method as in PMID 23962161; details: cited from earlier work

## COc1cc([C@@H]2Oc3c(O)cc([C@H]4Oc5c(Br)c(O)c(Br)c(O)c5C(=O)[C@@H]4O)cc3[C@H]2CO)ccc1O [compound 15, 6,8-Dibromosilychristin A]
[1]
  Effect on viability in combination with chloramphenicol: -
DPPH radical scavenging
  IC50: 106 µM
[2]
  FRAP [Fe2+eq]: 0.34 ± 0.03 Fe2+eq
[3]
  ABTS [CEAC]: 1.28 ± 0.02 CEAC
[4]
  EC50: > 200 µM
[5]
  EC50: > 200 µM
[6]
  IC50: 459 µM
[7]
  IC50: > 200 µM
[8]
  IC50: > 200 µM
[9]
  IC50: 249 µM
  SI (selectivity index): 0.71
[10]
  IC50: 176 µM
[11]; colistin 2 mg/L
  Effect on viability in combination with colistin: -
[11]
  Effect on viability in combination with imipenem: -
[12]
  FCR [GAE]: 2.03 ± 0.05 GAE
[13]
  IC50: > 100 µM

## COc1cc(C2Oc3cc(-c4oc5c(Br)c(O)c(Br)c(O)c5c(=O)c4O)ccc3OC2CO)ccc1O (stereo not drawn) [compound 17, 6,8-dibromo-2,3-dehydrosilybin AB]
[1]
  Effect on viability in combination with chloramphenicol: -
[1]; gentamicin 1 mg/L
  Effect on viability in combination with gentamicin: -
DPPH radical scavenging
  IC50: 11.7 µM
[2]
  FRAP [Fe2+eq]: 0.54 ± 0.04 Fe2+eq
[3]
  ABTS [CEAC]: 1.49 ± 0.04 CEAC
[4]
  EC50: 55.5 ± 1.6 µM
[5]
  EC50: 4.1 ± 0.2 µM
[5]; ratio IC50 (viability) / EC50 (communication), BAA 1119
  SI (selectivity index): 31.2 ± 3.5
[6]
  IC50: 56.7 ± 1.6 µM
[7]
  IC50: > 200 µM
[8]
  IC50: 127 ± 7.4 µM
[9]
  IC50: 91.3 ± 1.6 µM
  SI (selectivity index): 0.46
[10]
  IC50: 41.7 ± 1 µM
[11]
  Effect on viability in combination with imipenem: -
[12]
  FCR [GAE]: 1.50 ± 0.02 GAE
[13]
  IC50: 44.4 ± 2.4 µM

## COc1cc([C@@H]2Oc3c(O)cc([C@H]4Oc5c(I)c(O)c(I)c(O)c5C(=O)[C@@H]4O)cc3[C@H]2CO)ccc1O [compound 27, 6,8-diiodosilychristin A]
DPPH radical scavenging
  IC50: 168 µM
[2]
  FRAP [Fe2+eq]: 0.21 ± 0.01 Fe2+eq
[3]
  ABTS [CEAC]: 1.13 ± 0.01 CEAC
[6]
  IC50: 97.2 ± 3.5 µM
[12]
  FCR [GAE]: 1.79 ± 0.05 GAE

## COc1ccc([C@@H]2CC(=O)c3c(O)cc(O)cc3O2)cc1O [hesperetin]
[14]
  Concentration inhibiting S. aureus biofilm formation: ≤ 4 µM

## O=c1c(O)c(-c2cc(O)c(O)c(O)c2)oc2cc(O)cc(O)c12 [myricetin]
[14]
  Concentration inhibiting S. aureus biofilm formation: ≤ 4 µM

## O=C(CCc1ccc(O)cc1)c1c(O)cc(O)cc1O [phloretin]
[14]
  Concentration inhibiting S. aureus biofilm formation: ≤ 4 µM

## prulonide A
Breast cancer cell lines
  Concentration showing cytotoxicity: 1000 nM
